In ChEMBL document CHEMBL5226381, “Iterative Methylation Leads to 3-Methylchuangxinmycin Production in Actinoplanes tsinanensis CPCC 200056” (2023) one finds MIC and Activity data, which are given here for 5 molecules.

The structures appear in SMILES notation. Converted amounts (≈) assume the structure as drawn. The source made the active and inactive calls. The calls are words filed in the database; no cut-off is given here.

Assay [1] concerns Mycobacterium tuberculosis. Nature of the assay: Antitubercular activity against INH/RIF-sensitive Mycobacterium tuberculosis clinical isolate S17 assessed as inhibition of bacterial growth incubated for 7 to 10 days by Alamar Blue staining based analysis. Type of assay: functional. The note with it: time 7-10 day. (In general: The colour change of resazurin is a common sign of viable cells or microbes.)

Assay [2] concerns Mycobacterium tuberculosis. Description: Antitubercular activity against Mycobacterium tuberculosis H37Rv assessed as inhibition of bacterial growth incubated for 7 to 10 days by Alamar Blue staining based analysis. Type of assay: functional. The note with it: time 7-10 day.
The test system of assay [3] is Mycobacterium tuberculosis. Description: Antitubercular activity against INH/RIF-sensitive Mycobacterium tuberculosis clinical isolate S23 assessed as inhibition of bacterial growth incubated for 7 to 10 days by Alamar Blue staining based analysis. Conditions: time 7-10 day. Format: functional.
The subject of the next assay is Acinetobacter baumannii. Nature of the assay: Antibacterial activity against Acinetobacter baumannii ATCC 19606 assessed as inhibition of bacterial growth incubated for 18 hrs by agar dilution method. Format: functional, organism-based. (In general: Agar dilution tests growth on a series of plates holding different concentrations.)
Assay [4] has as its system Klebsiella pneumoniae. Description: Antibacterial activity against Klebsiella pneumoniae ATCC 700603 assessed as inhibition of bacterial growth incubated for 18 hrs by agar dilution method. Format: functional, organism-based.
Assay [5] has as its system Escherichia coli. Nature of the assay: Antibacterial activity against Escherichia coli ATCC 25922 assessed as inhibition of bacterial growth incubated for 18 hrs by agar dilution method. Format: functional, organism-based.
For assay [6], the system named is Escherichia coli. Description: Antibacterial activity against Escherichia coli ATCC 35218 assessed as inhibition of bacterial growth incubated for 18 hrs by agar dilution method. Format: functional, organism-based.
In another assay the test system is Klebsiella aerogenes. Description: Antibacterial activity against Enterobacter aerogenes ATCC 13048 assessed as inhibition of bacterial growth incubated for 18 hrs by agar dilution method. Format: functional, organism-based.
Assay [7] concerns Escherichia coli. Description: Antibacterial activity against Escherichia coli ATCC 2469 assessed as inhibition of bacterial growth incubated for 18 hrs by agar dilution method. Format: functional, organism-based.
For assay [8], the system named is Klebsiella pneumoniae. Nature of the assay: Antibacterial activity against Klebsiella pneumoniae ATCC BAA-2146 assessed as inhibition of bacterial growth incubated for 18 hrs by agar dilution method. Type of assay: functional, organism-based.
Assay [9] has as its system Praffidenbacterium reggii. Nature of the assay: Antibacterial activity against […] ATCC 31052 assessed as inhibition of bacterial growth incubated for 18 hrs by agar dilution method. Format: functional.
In another assay the test system is Serratia marcescens. Description: Antibacterial activity against Serratia marcescens ATCC 21074 assessed as inhibition of bacterial growth incubated for 18 hrs by agar dilution method. Format: functional, organism-based.
The test system of a further assay is Pseudomonas aeruginosa. Description: Antibacterial activity against Pseudomonas aeruginosa ATCC 27853 assessed as inhibition of bacterial growth incubated for 18 hrs by agar dilution method. Type of assay: functional, organism-based.
The next assay has as its system Enterobacter cloacae. Nature of the assay: Antibacterial activity against Enterobacter cloacae ATCC 43560 assessed as inhibition of bacterial growth incubated for 18 hrs by agar dilution method. Type of assay: functional, organism-based.
For assay [10], the system named is Escherichia coli. Description: Antibacterial activity against Escherichia coli 16-1 assessed as inhibition of bacterial growth incubated for 18 hrs by agar dilution method. Format: functional, organism-based.
Another assay concerns Proteus mirabilis. Nature of the assay: Antibacterial activity against Proteus mirabilis ATCC 49565 assessed as inhibition of bacterial growth incubated for 18 hrs by agar dilution method. Format: functional, organism-based.
Assay [11] deals with Stenotrophomonas maltophilia. Nature of the assay: Antibacterial activity against Pseudomonas maltophilia ATCC 13636 assessed as inhibition of bacterial growth incubated for 18 hrs by agar dilution method. Type of assay: functional, organism-based.
Another assay relates to Shigella flexneri. Nature of the assay: Antibacterial activity against Shigella flexneri ATCC 12022 assessed as inhibition of bacterial growth incubated for 18 hrs by agar dilution method. Format: functional, organism-based.

Regarding `O=C(O)[C@H]1Cc2c[nH]c3cccc(c23)S1`, the minimum inhibitory concentration (MIC) (in general, the least concentration at which growth counts as inhibited) in assay [1] is 0.78 µg/mL (≈ 3.56 µM); in [2] it was 4 µg/mL (≈ 18.2 µM); in assay [3] it was 0.78 µg/mL (≈ 3.56 µM).
Take `CC1(C)c2c[nH]c3cccc(c23)S[C@H]1C(=O)O`: the result in the assay with Acinetobacter baumannii, in the assay on Klebsiella pneumoniae [4], with Escherichia coli [5], with Escherichia coli [6], in the assay on Klebsiella aerogenes and in the assay on Escherichia coli [7] was inactive. For the same molecule, the result (in the assay with Klebsiella pneumoniae [8]; in assay [9]; in the assay with Serratia marcescens; in the assay with Pseudomonas aeruginosa; with Enterobacter cloacae; in the assay with Escherichia coli [10]) was inactive. Also, the result (in the assay on Proteus mirabilis; in [11]; in the assay on Shigella flexneri) was inactive. The minimal inhibitory concentration (MIC) is 50 µg/mL (≈ 202 µM) in assay [1], 32 µg/mL (≈ 129 µM) in assay [2] and 12.5 µg/mL (≈ 50.5 µM) in [3].
Take `C[C@H]1c2c[nH]c3cccc(c23)S[C@H]1C(=O)O` [CHUANGXINMYCIN]: the outcome with Acinetobacter baumannii, with Klebsiella pneumoniae [4], in the assay on Escherichia coli [5], in the assay on Escherichia coli [6], in the assay with Klebsiella aerogenes and in the assay on Escherichia coli [7] was inactive. The result (in the assay on Klebsiella pneumoniae [8]; in assay [9]; in the assay on Serratia marcescens; in the assay with Pseudomonas aeruginosa; in the assay with Enterobacter cloacae; with Escherichia coli [10]) was inactive. Moreover, the result (in the assay on Proteus mirabilis; in assay [11]) was inactive. For the same molecule, the MIC was found to be 0.78 µg/mL (≈ 3.34 µM) in [1], 1 µg/mL (≈ 4.29 µM) in [2] and 0.78 µg/mL (≈ 3.34 µM) in assay [3].
Regarding `NNC(=O)c1ccncc1` [ISONIAZID], the MIC in [1] worked out at 0.125 µg/mL (≈ 0.911 µM); in [2], 0.06 µg/mL (≈ 0.438 µM); in [3] it was 0.125 µg/mL (≈ 0.911 µM).
As to `CO[C@H]1/C=C/O[C@@]2(C)Oc3c(C)c(O)c4c(O)c(c(/C=N/N5CCN(C)CC5)c(O)c4c3C2=O)NC(=O)/C(C)=C\C=C\[C@H](C)[C@H](O)[C@@H](C)[C@@H](O)[C@@H](C)[C@H](OC(C)=O)[C@@H]1C` [RIFAMPIN], the MIC in assay [1], in [2] and in assay [3] was 0.25 µg/mL (≈ 0.304 µM) in each case.
